# Experimental data published in patent publication US8663646B2, “P53 peptide vaccine” (priority 2007, dated 2014).
# Where no end group is shown, it is not given here.
# Tests used:
# [1] = target: T1, HLA-A*1101 (Homo sapiens, UniProt P04439, A114D/D185E/E176A/F33Y/L180Q/S129P/T187R); test: Stability of peptide-HLA complex, binding at 4° C. and 20° C., HLA-A*1101; conditions: for HLA binding Stability (Table 5): HLA type A11; for Peptide Binding Stability: HLA-A*1101, IC50 at 20° C. vs 4° C.
# T1 construct: B-cell lines used are: CAA (A*0101), EKR (A*0301), BVR (A*1101), VIJF (A*2401); endogenous in cells; host or cells: B-cell line BVR
# Procedure: (§1) Stability of other peptide-HLA complexes was preferably determined as follows. […] Peptides of >50% of the initial complexes was lost within 2 hours were considered unstable. […] The rest was designated as unstable peptide binding.
# (§2) Peptides 8-11 residues in length were selected based on typical anchor residues for HLA-A*0101, A*0301, A*1101 and HLA-A*2401 (Rammensee H G et al). The capacity of peptides to bind was tested in a competition based cellular binding assay as previously described (van der Burg S H et al 1995). FL-labeled reference peptides were synthesized as Cys-derivative (van der Burg S H et al 1995). Fluorescence labeled reference peptides used were: YLEPAC(FL)AK (SEQ ID NO: 87) (HLA-A*0101) and KVFPC(FL)ALINK (SEQ ID NO: 88) (HLA-A*1101) (Sette A et al), KVFPC(FL)ALINK (SEQ ID NO: 89) (HLAA*0301) (van der Burg S H et al 1995) and RYLKC(FL)QQLL (SEQ ID NO: 90) (A*2401) (Dai L C et al). B-cell lines used are: CAA (A*0101), EKR (A*0301), BVR (A*1101), VIJF (A*2401). The relative binding capacity of the peptides is expressed as the peptide concentration to inhibit 50% (1050) of the binding of the reference peptide. […] Peptide stabilization for HLA-A*0201 was performed as previously described (van der Burg S H et al, 1996). Peptides of >50% of the initial complexes was lost within 2 hours were considered unstable. Stability of other peptide-HLA complexes was determined as follows. Peptide binding was performed at 4° C. and 20° C. and 1050 were determined. […] The rest was designated as unstable peptide binding.
# [2] = target: T2, HLA-A*0301 (Homo sapiens, UniProt P04439); test: Stability of peptide-HLA complex, binding at 4° C. and 20° C., HLA-A*0301; conditions: for HLA binding Stability (Table 5): HLA type A3; for Peptide Binding Stability: HLA-A*0301, IC50 at 20° C. vs 4° C.
# T2 construct: B-cell lines used are: CAA (A*0101), EKR (A*0301), BVR (A*1101), VIJF (A*2401); endogenous in cells; host or cells: B-cell line EKR
# Procedure: as §1, §2
# [3] = target: T2, HLA-A*0301; test: Competition based cellular binding assay, HLA-A*0301 (B-cell line EKR)
Molecule,HLA binding Stability (Table 5) [1],Peptide Binding Stability [1],HLA binding Stability (Table 5) [2],Peptide Binding Stability [2],HLA binding Affinity (Table 5) ([3]; HLA type A3),"IC50 ([3]; HLA-A*0301, IC50 category, read-out: Peptide Binding Affinity)"
C[C@@H](O)[C@H](NC(=O)[C@@H](N)CCCCN)C(=O)N[C@@H](Cc1ccc(O)cc1)C(=O)N[C@@H](CCC(N)=O)C(=O)NCC(=O)N[C@@H](CO)C(=O)N[C@@H](Cc1ccc(O)cc1)C(=O)NCC(=O)N[C@@H](Cc1ccccc1)C(=O)N[C@@H](CCCNC(=N)N)C(=O)O [p53 101-110],+/− (Peptides that displayed IC50 at 20 °C of more than twice the IC50 at 4 °C but IC50 < 15 μM were considered to bind with intermediate stability.),+/− (Peptides that displayed IC50 at 20 °C of more than twice the IC50 at 4 °C but IC50 < 15 μM were considered to bind with intermediate stability.),+/− (Peptides that displayed IC50 at 20 °C of more than twice the IC50 at 4 °C but IC50 < 15 μM were considered to bind with intermediate stability.),+/− (Peptides that displayed IC50 at 20 °C of more than twice the IC50 at 4 °C but IC50 < 15 μM were considered to bind with intermediate stability.),,
CC(C)C[C@H](NC(=O)[C@H](C)NC(=O)[C@@H]1CCCN1C(=O)[C@H](CO)NC(=O)[C@H](Cc1ccc(O)cc1)NC(=O)[C@@H](NC(=O)[C@@H](N)CS)[C@@H](C)O)C(=O)N[C@@H](CC(N)=O)C(=O)N[C@@H](CCCCN)C(=O)O [p53 124-132],,+ (Stable peptides displayed IC50 at 20 °C that deviated <2 times of the IC50 at 4° C.),,+ (Stable peptides displayed IC50 at 20 °C that deviated <2 times of the IC50 at 4° C.),,
CC[C@H](C)[C@H](NC(=O)[C@H](C)NC(=O)[C@H](CCSC)NC(=O)[C@H](C)NC(=O)[C@H](CCCNC(=N)N)NC(=O)[C@@H](NC(=O)[C@@H](N)CCCNC(=N)N)C(C)C)C(=O)N[C@@H](Cc1ccc(O)cc1)C(=O)N[C@@H](CCCCN)C(=O)O [p53 156-164],+ (Stable peptides displayed IC50 at 20 °C that deviated <2 times of the IC50 at 4° C.),+ (Stable peptides displayed IC50 at 20 °C that deviated <2 times of the IC50 at 4° C.),+ (Stable peptides displayed IC50 at 20 °C that deviated <2 times of the IC50 at 4° C.),+ (Stable peptides displayed IC50 at 20 °C that deviated <2 times of the IC50 at 4° C.),,
RVRAMAIY [p53 156-163],,,− (The rest was designated as unstable peptide binding.),− (The rest was designated as unstable peptide binding.),int,5 to 15 µM
